Source: patent publication EP0269947B2, “Antiviral phosphonomethoxyalkylene purine and pyrimidine derivatives” (priority 1986, dated 1988)

Columns and labels:
Set-up in all cases: unit not given here
[1] = tested on: Murine leukemia virus (MuLV); test: UV-XC plaque assay against murine retroviruses; type: cell-based; details: MuLV in SC-1 cells
Method: The compounds wore evaluated for antiviral activity against Murine leukemia virus (MuLV) strains using the UV-XC plaque assay (Rowe, et al., "Virology," 42:1136, 1970).
The MuLV strains were grown in feral mouse cells (SC-1) and used for antiviral tests using the UV-XC plaque assay. Briefly, SC-1 coils are grown as monolayers in 4-well tissue culture plates and inoculated with approximately 50-100 plaque forming units of MuLV in 0.5 ml of 5% EMEM containing 20 ug/ml DEAE/Dextran. After 1 hr. adsorbtion, the inoculum is removed and 5 ml of 5% EMEM containing three-fold dilutions of the appropriate drug are added. Five days later, the cultures are UV-irradiated with an ultraviolet lamp and rat XC sarcoma cells are added to the cultures. Three-four days after UV-irradiation, the cell cultures are stained with Giemsa stain and the plaques are enumerated. Antiviral activity is expressed in terms of the reduction in the mean number of UV-XC plaques counted in the drug treated, virus-infected cultures compared with mean number of plaques counted in untreated, virus-infected control cultures. The ID50 for each drug was determined.

[2] = tested on: Human cytomegalovirus (HCMV) strain (AD169); test: Plaque reduction assay against human cytomegalovirus; type: cell-based; details: HCMV strain AD169 in MRC-5 cells
Method: (§1) The titer of HSV strains is determined by a plaque titration method (Roizman and Roane,"Virology," 15:75-79, 1961). Tissue culture 24-well petri dishes are seeded with cells and used for assays when approximately 75% monolayer. Volumes (0.1ml) of logarithmic dilutions of the virus strain are inoculated onto each of triplicate wells, and absorbed for one hour with intermittent shaking. The inoculum thereafter is removed, and 1 ml of 5-10% EMEM containing 0.3% human immune serum globulin is added. After a 48 hr. incubation period at 37°C in a 5% CO2 atmosphere, the overlay medium is removed and the cell sheets stained with Giemsa stain. The number of plaques is counted, the triplicate is averaged, and the number of plaque-forming units per ml is calculated.
(§2) The compounds are tested for activity against the herpes simplex strains using a stock solution of each compound freshly prepared. Appropriate dilution of each compound are made in 10% EMEM before usage. The antiviral efficacy of each compound is determined using the plaque reduction assay described above. Briefly, tissue culture 24-well plates, with approximately 75% cell monolayer are inoculated with approximately 50 plaque forming units of HSV per 0.1 ml, and the virus adsorbed for 1 hr, with intermittent shaking. After removal of the inoculum, 1 ml of 10% EMEM containing two-fold dilutions of the appropriate drug are added in triplicates. Triplicate wells/plate receives no drug and are used as a virus control. After a 48-hour incubation period, at 37°C in a 5% CO2 atmosphere, the overlay medium is removed, the cells stained as described above, and plaques are counted. The counts of triplicate wells are averaged, and the number of plaques in the presence of each drug dilution are calculated.
(§3) The antiviral potency of the drug is determined by ID50, the drug concentration necessary to reduce the number of plaques by 50% of those in the virus control cultures.
Human cytomegalovirus (HCMV) strain (AD169) was grown and titered at 37° in human embryonic lung (diploid) cells, MRC-5, and used for the antiviral assay.
The compounds are tested for activity against the HCMV using the procedure for the plaque reduction assay described above.

HSV-1 [3] = test: Colorimetric dye-uptake assay (neutral red), herpes simplex virus type 1; type: cell-based, Herpes simplex virus (HSV); details: vero cells, 48 hr incubation, neutral red stain; ID50 by linear regression
Method: (§4) Herpes simplex virus (HSV) strains wars grown and titered at 37°C in vero cells (African Green Monkey Kidney cells) and used for virus work before the tenth passage.
(§5) Cells were grown and maintained in Earle's Minimum Essential Medium (EMEM), Gibco Laboratories, supplemented with 0.75% sodium bicarbonate, 2mM 1-glutamine, Pen-strep. and 5-10% fetal calf serum.
(§6) For the primary screening, a colorimetric dye-uptake assay (McLaren, C., et al., "Antiviral Research," 3:323, 1983) is used employing rapidly growing vero cells. Briefly, cells, compound and virus dilutions are added onto 96-well tissue culture plates simultaneously using the cells, viruses and medium described above. After 48 hr. incubation at 37°C in 5% CO2 atmosphere, the overlay medium is removed and the cell sheets are stained with 0.04% neutral red solution. After 30 min. incubation at 37°C, the cell sheets are washed and the stain is eluted with 0.05 M sodium monophosphate in 47% ethanol and the O.D. is determined at 540 nm wave length.
(§7) The 50% inhibitory dose (ID50) for each drug is determined by linear regression analysis.

HSV-2 [4] = test: Colorimetric dye-uptake assay (neutral red), herpes simplex virus type 2; type: cell-based, Herpes simplex virus (HSV); details: vero cells, 48 hr incubation, neutral red stain; ID50 by linear regression
Method: as §4, §5, §6, §7

HSV-1 [5] = test: Plaque reduction assay, herpes simplex virus type 1; type: cell-based, Herpes simplex virus (HSV); details: vero cells, 48-hour incubation; concentration reducing number of plaques by 50%
Method: as §4, §5, §1, §2, §3

HSV-2 [6] = test: Plaque reduction assay, herpes simplex virus type 2; type: cell-based, Herpes simplex virus (HSV); details: vero cells, 48-hour incubation; concentration reducing number of plaques by 50%
Method: as §4, §5, §1, §2, §3

Row | Structure (SMILES) | Muly ID50 [1] | CMV ID50 [2] | Dye-Uptake HSV-1 ID50 (HSV-1 [3]) | Dye-Uptake HSV-2 ID50 (HSV-2 [4]) | Plaque Reduction HSV-1 ID50 (HSV-1 [5]) | Plaque Reduction HSV-2 ID50 (HSV-2 [6])
1 | Cc1cn([C@H]2C[C@H](N=[N+]=[N-])[C@@H](CO)O2)c(=O)[nH]c1=O [3'-Azido-3'-deoxythymidine, reference compound] | 0.0001 | – | – | – | – | –
2 | Nc1nc2c(ncn2COC(CO)CO)c(=O)[nH]1 [9-(1,3-Dihydroxypropoxymethyl)guanine, reference compound] | – | 1.2 | – | – | – | –
3 | Nc1ncnc2c1ncn2C[C@@H](CO)OCP(=O)(O)O [(S)-9-(3-Hydroxy-2-phosphonomethoxy)propyl adenine, reference compound] | 2.0 | 0.13 | 15.1 | > 25 | 13.8 | 35.8
4 | Nc1nc2c(ncn2COCCO)c(=O)[nH]1 [Acyclovir, reference compound] | – | – | 0.5 | 1.0 | 0.3 | 1.5
5 | CCOP(=O)(O)COCCn1cnc2c(=O)[nH]c(N)nc21 [Ex. 7, 9-(2-(Monoethylphosphonomethoxy)ethyl)guanine] | 0.56 | 0.23 | 12 | 8 | 4.8 | 5.1
6 | CC(COCP(=O)(O)O)n1cnc2c(=O)[nH]c(N)nc21 (centres unmarked) [Ex. 13] | – | – | 8.7 | 10.4 | 3.0 | 3.3
7 | Nc1nc2c(ncn2CCCOCP(=O)(O)O)c(=O)[nH]1 [Ex. 18] | 0.04 | 6.0 | – | – | – | –
8 | Nc1ncc2ncn(CCOCP(=O)(O)O)c2n1 [Ex. 25] | – | <0.032 | – | – | – | –
9 | COP(=O)(O)COCCn1cnc2c(=O)[nH]c(N)nc21 [Ex. 32] | 0.05 | – | 1.5 | 3.8 | 1.6 | 1.2
10 | CCCOP(=O)(O)COCCn1cnc2c(=O)[nH]c(N)nc21 [Ex. 33] | – | – | – | – | 9.7 | 9.9
11 | CC(C)OP(=O)(O)COCCn1cnc2c(=O)[nH]c(N)nc21 [Ex. 34] | 1.72 | – | – | – | 74.9 | 34.8
